Data: US8263606B2 (Xenon Pharmaceuticals Inc., priority 2008, dated 2012)
Where a name gives a salt, the structure may show the parent alone.

How the values were obtained:
sodium channel = test: Guanidine influx assay (14C-guanidine radiotracer flux, in vitro); type: cell-based, human or rat; conditions: guanidine influx assay using a known cell line that expresses a sodium channel
Source text: This example describes an in vitro assay for testing and profiling test agents against human or rat sodium channels stably expressed in cells of either an endogenous or recombinant origin. The assay is also useful for determining the IC50 of a sodium channel blocking compound. The assay is based on the guanidine flux assay described by Reddy, N. L., et al., J. Med. Chem. (1998), 41(17):3298-302.
The guanidine influx assay is a radiotracer flux assay used to determine ion flux activity of sodium channels in a high-throughput microplate-based format. The assay uses ^14C-guanidine hydrochloride in combination with various known sodium channel modulators, to assay the potency of test agents. Potency is determined by an IC50 calculation. Selectivity is determined by comparing potency of the compound for the channel of interest to its potency against other sodium channels (also called ‘selectivity profiling’).
Each of the test agents is assayed against cells that express the channels of interest. Voltage gated sodium channels are either TTX sensitive or insensitive. This property is useful when evaluating the activities of a channel of interest when it resides in a mixed population with other sodium channels. The following Table 1 summarizes cell lines useful in screening for a certain channel activity in the presence or absence of TTX.
It is also possible to employ recombinant cells expressing these sodium channels. Cloning and propagation of recombinant cells are known to those skilled in the art (see, for example, Klugbauer, N, et al., EMBO J. (1995), 14(6):1084-90; and Lossin, C., et al., Neuron (2002), 34, pp. 877-884).
Cells expressing the channel of interest are grown according to the supplier or in the case of a recombinant cell in the presence of selective growth media such as G418 (Gibco/Invitrogen). The cells are disassociated from the culture dishes with an enzymatic solution (Ix) Trypsin/EDTA (Gibco/Invitrogen) and analyzed for density and viability using haemocytometer (Neubauer). Disassociated cells are washed and resuspended in their culture media then plated into Scintiplates (Beckman Coulter Inc.) (approximately 100,000 cells/well) and incubated at 37° C./5% CO2 for 20-24 hours. After an extensive wash with Low sodium HEPES-buffered saline solution (LNHBSS) (150 mM Choline Chloride, […] (Sigma), 1 mM Calcium Chloride, 5 mM Potassium Chloride, 1 mM Magnesium Chloride, 10 mM Glucose) agents diluted with LNHBSS are added to each well. (Varying concentrations of test agent may be used). The activation/radiolabel mixture contains aconitine (Sigma) to increase the percentage of time that the sodium channels are open, and ^14C-guanidine hydrochloride (ARC) to measure flux through the voltage-gated sodium channels.
After loading the cells with test agent and activation/radiolabel mixture, the Scintiplates are incubated at ambient temperature. Following the incubation, the Scintplates are extensively washed with LNHBSS supplemented with guanidine (Sigma). The Scintiplates are dried and then counted using a Wallac MicroBeta TriLux (Perkin-Elmer Life Sciences). The ability of the test agent to block sodium channel activity is determined by comparing the amount of ^14C-guanidine present inside the cells expressing the different sodium channels.
The IC50 value of a test agent for a specific sodium channel may be determined using the above general method. […] Typically the mid-point concentration of test agent is set at 1 μM, and sequential concentrations of half dilutions greater or smaller are applied (e.g. 0.5 μM; 5 μM and 0.25 μM; 10 μM and 0.125 μM; 20 μM etc.). The IC50 curve is calculated using the 4 Parameter Logistic Model or Sigmoidal Dose-Response Model formula (fit=(A+((B−A)/(1+((C/x)^D)))).
The fold selectivity, factor of selectivity or multiple of selectivity, is calculated by dividing the IC50 value of the test sodium channel by the reference sodium channel, for example, Nav1.5. […]

CYP3A4 = CYP3A4 (Homo sapiens, UniProt P08684); test: Cytochrome P450 (CYP450) Inhibition Assay, CYP3A4 (Vivid fluorescence, BOMCC substrate); conditions: human, P450 Baculosomes (recombinant CYP3A4), probe BOMCC (Vivid substrate)
CYP3A4, sequence (P08684 whole entry): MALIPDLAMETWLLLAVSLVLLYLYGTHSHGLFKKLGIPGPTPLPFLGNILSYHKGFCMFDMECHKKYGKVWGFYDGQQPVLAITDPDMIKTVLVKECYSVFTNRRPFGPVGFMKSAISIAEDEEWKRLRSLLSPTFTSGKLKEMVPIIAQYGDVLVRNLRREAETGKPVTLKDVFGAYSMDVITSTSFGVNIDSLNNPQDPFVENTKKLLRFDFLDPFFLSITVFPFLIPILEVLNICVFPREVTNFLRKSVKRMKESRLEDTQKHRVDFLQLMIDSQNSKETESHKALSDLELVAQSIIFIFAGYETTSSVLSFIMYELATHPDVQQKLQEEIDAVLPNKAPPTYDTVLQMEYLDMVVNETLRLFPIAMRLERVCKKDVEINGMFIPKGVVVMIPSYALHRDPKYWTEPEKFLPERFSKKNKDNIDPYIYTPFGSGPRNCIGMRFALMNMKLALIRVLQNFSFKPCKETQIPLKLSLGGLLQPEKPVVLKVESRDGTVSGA

Row | Structure (SMILES) | IC50 (sodium channel) [nM] | inhibition at 10 µM (CYP3A4) [%] | IC50 (sodium channel; activity level class) [nM]
1 | O=C(NCc1cccc(Cl)c1)c1ccccc1CN1C(=O)C2(COc3cc4c(cc32)CCO4)c2ccccc21 (stereo not shown) [Example 12.23, N-(3-chlorobenzyl)-2-[(2′-oxo-5,6-dihydrospiro[benzo[1,2-b:5,4-b′]difuran-3,3′-indol]-1′(2′H)-yl)methyl]benzamide] | 1000 to 10000 | > 50 | 
2 | O=C1N(Cc2ccc(-c3ccncc3)o2)c2ccccc2C12COc1cc3c(cc12)CCO3 (stereo not shown) [Example 11.15, 1′-[(5-pyridin-4-ylfuran-2-yl)methyl]-5,6-dihydrospiro[benzo[1,2-b:5,4-b′]difuran-3,3′-indol]-2′(1′H)-one] | 100 to 1000 | > 50 | 
3 | CNC(=O)c1cccnc1CN1C(=O)C2(COc3cc4c(cc32)OCCO4)c2ccccc21 (stereo not shown) [Example 12.63, N-methyl-2-[(2′-oxo-2,3-dihydrospiro[furo[2,3-g][1,4]benzodioxine-8,3′-indol]-1′(2′H)-yl)methyl]pyridine-3-carboxamide] | 1000 to 10000 | < 50 | 
4 | O=C1N(Cc2cccc(F)c2F)c2ccccc2C12COc1cc3c(cc12)OCCO3 (stereo not shown) [Example 7.19, 1-(2,3-difluorobenzyl)-2,3-dihydrospiro[furo[2,3-g][1,4]benzodioxine-8,3′-indol]-2′(1′H)-one] |  | > 50 | 1 to 100
5 | CCCCOc1ccc(-c2cccc3c2C2(COc4cc5c(cc42)CCO5)C(=O)N3C[C@H]2CCCO2)cc1 (stereo partly drawn) [Example 16.8, 4′-(4-butoxyphenyl)-1′-[(2R)-tetrahydrofuran-2-ylmethyl]-5,6-dihydrospiro[benzo[1,2-b:5,4-b′]difuran-3,3′-indol]-2′(1′H)-one] | 100 to 1000 | < 50 | 
6 | COc1cc2c(cc1C)[C@]1(CO2)C(=O)N(CN2CCN(C)CC2)c2ccccc21 [Example 11.65, (3R)-6-methoxy-5-methyl-1′-[(4-methylpiperazin-1-yl)methyl]spiro[1-benzofuran-3,3′-indol]-2′(1′H)-one hydrogen chloride] | 100 to 1000 | > 50 | 
7 | O=C1N(Cc2cccc(OC(F)(F)F)c2)c2ccccc2C12COc1cc3c(cc12)OCCO3 (stereo not shown) [Example 7.24, 1′-[(3-trifluoromethoxy)benzyl]-2,3-dihydrospiro[furo[2,3-g][1,4]benzodioxine-8,3′-indol]-2′(1′H)-one] |  | > 50 | 1 to 100
8 | O=C1N(Cc2c(F)cccc2C(F)(F)F)c2ccccc2C12COc1cc3c(cc12)OCCO3 (stereo not shown) [Example 7.25, 1′-[(2-fluoro-6-trifluoromethyl)benzyl]-2,3-dihydrospiro[furo[2,3-g][1,4]benzodioxine-8,3′-indol]-2′(1′H)-one] |  | < 50 | 1 to 100
9 | CN1CCC(CN2C(=O)C3(COc4cc5c(cc43)OCCO5)c3ccccc32)CC1 (stereo not shown) [Example 11.101, 1-[(1-methylpiperidin-4-yl)methyl]-2,3-dihydrospiro[furo[2,3-g][1,4]benzodioxine-8,3′-indol]-2′(1′H)-one hydrochloride] | 1000 to 10000 | < 50 | 
10 | CS(=O)(=O)Nc1ccc2c(c1)OCC21C(=O)N(C[C@H]2CCCO2)c2ccccc21 (stereo partly drawn) [Example 11.48, N-{2′-oxo-1′-[(2R)-tetrahydrofuran-2-ylmethyl]-1′,2′-dihydrospiro[1-benzofuran-3,3′-indol]-6-yl}methanesulfonamide] | 1000 to 10000 | < 50 | 
11 | O=C1N(Cc2ccccc2)c2ccccc2C12COc1cc3c(cc12)CCO3 (stereo not shown) [Example 4.14, 1′-benzyl-5,6-dihydrospiro[benzo[1,2-b:5,4-b′]difuran-3,3′-indol]-2′(1′H)-one] |  | > 50 | 1 to 100
12 | O=C1N(Cc2cccc(S(=O)(=O)N3CCOCC3)c2)c2ccccc2C12COc1cc3c(cc12)OCCO3 (stereo not shown) [Example 7.17, 1′-[3-(morpholin-4-ylsulfonyl)benzyl]-2,3-dihydrospiro[furo[2,3-g][1,4]benzodioxine-8,3′-indol]-2′(1′H)-one] |  | > 50 | 1000 to 10000
13 | COc1cncc(N2C(=O)C3(COc4cc5c(cc43)OCO5)c3ccccc32)c1 (stereo not shown) [Example 1.17, 1′-(5-methoxypyridin-3-yl)spiro[furo[2,3-f][1,3]benzodioxole-7,3′-indol]-2′(1′H)-one] |  | > 50 | 100 to 1000
14 | O=C1N(Cc2cc(Br)no2)c2ccccc2C12COc1cc3c(cc12)CCO3 (stereo not shown) [Example 4.17, 1-[(3-bromoisoxazol-5-yl)methyl]-5,6-dihydrospiro[benzo[1,2-b:5,4-b′]difuran-3,3′-indol]-2′(1′H)-one] |  | > 50 | 1 to 100
15 | O=C(c1ccc(CN2C(=O)C3(COc4cc5c(cc43)CCO5)c3ccccc32)cc1)N1CCOCC1 (stereo not shown) [Example 12.33, 1′-[4-(morpholin-4-ylcarbonyl)benzyl]-5,6-dihydrospiro[benzo[1,2-b:5,4-b′]difuran-3,3′-indol]-2′(1′H)-one] | 1000 to 10000 | > 50 | 
16 | CC(C)N1CCOC(CN2C(=O)C3(COc4cc5c(cc43)CCO5)c3ccccc32)C1 (stereo not shown) [Example 11.42, 1′-{[4-(1-methylethyl)morpholin-2-yl]methyl}-5,6-dihydrospiro[benzo[1,2-b:5,4-b′]difuran-3,3′-indol]-2′(1′H)-one] | 1000 to 10000 | > 50 | 
17 | CNC(=O)c1ccc(CN2C(=O)C3(COc4cc5c(cc43)CCO5)c3ccccc32)o1 (stereo not shown) [Example 13.2, N-methyl-5-[(2′-oxo-5,6-dihydrospiro[benzo[1,2-b:5,4-b′]difuran-3,3′-indol]-1′(2′H)-yl)methyl]furan-2-carboxamide] | 100 to 1000 | > 50 | 
18 | Cn1c(CN2C(=O)C3(COc4cc5c(cc43)CCO5)c3ccccc32)cnc1Cl (stereo not shown) [Example 4.2, 1′-[(2-chloro-1-methyl-1H-imidazol-5-yl)methyl]-5,6-dihydrospiro[benzo[1,2-b:5,4-b′]difuran-3,3′-indol]-2′(1′H)-one] |  | > 50 | 1 to 100
19 | O=C1Nc2ccccc2C12COc1cc(Br)ccc12 (stereo not shown) [Example 3.2, 6-bromospiro[1-benzofuran-3,3′-indol]-2′(1′H)-one] |  | > 50 | 1000 to 10000
20 | O=C(Nc1ccc2c(c1)CCC2)c1ccc(CN2C(=O)C3(COc4cc5c(cc43)CCO5)c3ccccc32)cc1 (stereo not shown) [Example 12.32, N-(2,3-dihydro-1H-inden-5-yl)-4-[(2′-oxo-5,6-dihydrospiro[benzo[1,2-b:5,4-b′]difuran-3,3′-indol]-1′(2′H)-yl)methyl]benzamide] | 1000 to 10000 | < 50 | 
21 | O=C1N(Cc2ccccc2OC(F)(F)F)c2ccccc2C12COc1cc3c(cc12)OCCO3 (stereo not shown) [Example 7.27, 1′-[(2-trifluoromethoxy)benzyl]-2,3-dihydrospiro[furo[2,3-g][1,4]benzodioxine-8,3′-indol]-2′(1′H)-one] |  | < 50 | 1 to 100
22 | O=C1N(C[C@@H]2CCCO2)c2ccccc2C12COc1cc3c(cc12)CCO3 (stereo partly drawn) [Example 4.5, 1′-[(2S)-tetrahydrofuran-2-ylmethyl]-5,6-dihydrospiro[benzo[1,2-b:5,4-b′]difuran-3,3′-indol]-2′(1′H)-one] |  | < 50 | 1 to 100
23 | O=C(Nc1ccccc1C(F)(F)F)c1ccc(CN2C(=O)C3(COc4cc5c(cc43)CCO5)c3ccccc32)cc1 (stereo not shown) [Example 12.26, 4-[(2′-oxo-5,6-dihydrospiro[benzo[1,2-b:5,4-b′]difuran-3,3′-indol]-1′(2′H)-yl)methyl]-N-[2-(trifluoromethyl)phenyl]benzamide] | 1000 to 10000 | > 50 | 
